# Results taken from US20230150981A1, “N-HETEROARYLALKYL-2-(HETEROCYCLYL AND HETEROCYCLYLMETHYL) ACETAMIDE DERIVATIVES AS SSTR4 AGONISTS” (Takeda Pharmaceutical Compnay Limited, priority 2020, published 2023).
# Target: T1, SSTR4 (Homo sapiens, UniProt P31391)
# T1 construct: host or cells: CHO-K1
# Assay: Inhibition of forskolin stimulated cAMP in CHO-K1 cells overexpressing SSTR4
# Format: cell-based
# Conditions: read-out: SSTR4 Activity pEC50 (converted)
# Method: Inhibition of Forskolin Stimulated cAMP in Cells Overexpressing SSTR4
# This cell-based assay measures the ability of compounds to inhibit forskolin stimulated cAMP in CHO-K1 cells overexpressing SSTR4. CHO-K1 cells overexpressing SSTR4 (CHO-SSTR4) are purchased from DiscoveRx (product code 95-0059C2). The CHO-SSTR4 cells are maintained in F12K media with 10% Fetal Bovine Serum (Hyclone), 1% Pen/Strep (Life Technologies), and 800 μg/mL G418 (Life Technologies). To perform the assay, 3000 cells are plated per well in white 384-well plate (Corning 3570) in 50 μL complete media and the cells are allowed to attach for 16 hours in a 37° C., 5% CO2 incubator. The next day, the culture media is removed from the cells and the cells are washed (added then removed) with Krebs Ringer Buffer (ZenBio, KRB-1000 mL). Test compounds are suspended in DMSO and diluted in stimulation buffer: Krebs Ringer Buffer plus 0.5% BSA (Roche), 300 μM IBMX (Sigma), and 350 nM forskolin (Sigma). The cells are incubated in 10 μL compound/stimulation buffer for 30 minutes at room temperature. Cellular cAMP levels are detected with a HTRF LANCE Ultra cAMP kit (Perkin Elmer, catalog number TRF0264).
# The assay is performed in accordance with the manufacturer's instructions. Five μL of diluted Eu-W8044 labeled streptavidin (dilution: 1:50 in cAMP Detection Buffer) is added to each well. Then 5 μL of diluted biotin cAMP (dilution: 1:150 in cAMP Detection Buffer) is added to each well. The plates are covered and allowed to incubate for 60 minutes at room temperature on a shaker. HTRF (665 nm/615 nm) is read on a Perkin Elmer ENVISION plate reader. The pEC50 values are generated using Activity Base for Screening Data Management.
# T1 sequence (P31391 whole entry): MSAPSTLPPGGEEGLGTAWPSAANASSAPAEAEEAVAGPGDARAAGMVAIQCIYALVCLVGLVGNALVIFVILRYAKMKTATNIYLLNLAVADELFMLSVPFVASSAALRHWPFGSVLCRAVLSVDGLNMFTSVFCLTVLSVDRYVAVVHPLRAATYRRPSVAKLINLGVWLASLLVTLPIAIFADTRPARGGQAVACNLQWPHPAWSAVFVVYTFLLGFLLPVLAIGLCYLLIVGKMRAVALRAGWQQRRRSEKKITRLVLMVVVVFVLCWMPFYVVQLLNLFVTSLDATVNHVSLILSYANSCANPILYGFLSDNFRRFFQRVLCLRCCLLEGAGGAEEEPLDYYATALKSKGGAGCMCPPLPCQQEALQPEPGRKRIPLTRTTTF
row,EC50,Compound
1,25.1 nM,"CN1CCCC[C@H]1CC(=O)NC(C)(C)c1nccc2occc12 (single isomer, unassigned) [Example 15]"
2,63.1 nM,"COc1c(C)cccc1C(C)(C)NC(=O)[C@@H](C)CN1CCC1 (single isomer, unassigned) [Example 147]"
3,20 nM,"CN1CCCCC1CC(=O)NC(C)(C)c1nccc2occc12 (stereo not drawn) [Example 13, N-(2-(furo[3,2-c]pyridin-4-yl)propan-2-yl)-2-(1-methylpiperidin-2-yl)acetamide]"
4,63.1 nM,"CCN1CCCC1CC(=O)NC1(COc2ncccc2C)CC1 (stereo not drawn) [Example 63, 2-(1-ethylpyrrolidin-2-yl)-N-(1-(((3-methylpyridin-2-yl)oxy)methyl)cyclopropyl)acetamide]"
5,63.1 nM,"CN1CCC[C@H]1CC(=O)NC(C)(C)c1cccc(F)c1Cl [Example 93, (S)-N-(2-(2-chloro-3-fluorophenyl)propan-2-yl)-2-(1-methylpyrrolidin-2-yl)acetamide]"
6,794 nM,"COc1cc(F)ccc1[C@H](C)NC(=O)C[C@@H]1CCCN1C [Example 95, N-((S)-1-(4-fluoro-2-methoxyphenyl)ethyl)-2-((S)-1-methylpyrrolidin-2-yl)acetamide]"
7,1000 nM,"CN1CCC(F)(F)C1CC(=O)NC(C)(C)c1nccc2ccccc12 (stereo not drawn) [Example 97, 2-(3,3-difluoro-1-methylpyrrolidin-2-yl)-N-(2-(isoquinolin-1-yl)propan-2-yl)acetamide]"
8,158 nM,"Cc1cccc2c(C(C)(C)NC(=O)CC3N(C)CCC3(F)F)nccc12 (stereo not drawn) [Example 98, 2-(3,3-difluoro-1-methylpyrrolidin-2-yl)-N-(2-(5-methylisoquinolin-1-yl)propan-2-yl)acetamide]"
9,3980 nM,"CN1CCC(F)(F)C1CC(=O)NC(C)(C)c1nccc2occc12 (stereo not drawn) [Example 99, 2-(3,3-difluoro-1-methylpyrrolidin-2-yl)-N-(2-(furo[3,2-c]pyridin-4-yl)propan-2-yl)acetamide]"
10,631 nM,"Cc1ccnc(OCC(C)(C)NC(=O)C[C@@H]2CCCN2C)c1 [Example 102, (S)-N-(2-methyl-1-((4-methylpyridin-2-yl)oxy)propan-2-yl)-2-(1-methylpyrrolidin-2-yl)acetamide]"
11,501 nM,"Cc1ccc(OCC(C)(C)NC(=O)C[C@@H]2CCCN2C)nc1 [Example 103, (S)-N-(2-methyl-1-((5-methylpyridin-2-yl)oxy)propan-2-yl)-2-(1-methylpyrrolidin-2-yl)acetamide]"
12,794 nM,"CN1CCC[C@H]1CC(=O)NC(C)(C)COc1cc(Cl)c(F)cn1 [Example 105, (S)-N-(1-((4-chloro-5-fluoropyridin-2-yl)oxy)-2-methylpropan-2-yl)-2-(1-methylpyrrolidin-2-yl)acetamide]"
13,20 nM,"CN1CCC[C@@H]1CC(=O)NC(C)(C)COc1ncccc1OC(F)(F)F [Example 106, (R)-N-(2-methyl-1-((3-(trifluoromethoxy)pyridin-2-yl)oxy)propan-2-yl)-2-(1-methylpyrrolidin-2-yl)acetamide]"
14,200 nM,"CCOc1cccnc1OCC(C)(C)NC(=O)C[C@H]1CCCN1C [Example 107, (R)-N-(1-((3-ethoxypyridin-2-yl)oxy)-2-methylpropan-2-yl)-2-(1-methylpyrrolidin-2-yl)acetamide]"
15,20 nM,"CN1CCC[C@@H]1CC(=O)NC(C)(C)COc1ncccc1C1CC1 [Example 108, (R)-N-(1-((3-cyclopropylpyridin-2-yl)oxy)-2-methylpropan-2-yl)-2-(1-methylpyrrolidin-2-yl)acetamide]"
16,631 nM,"CCOc1cccnc1OCC(C)(C)NC(=O)C[C@@H]1CCCN1C [Example 109, (S)-N-(1-((3-ethoxypyridin-2-yl)oxy)-2-methylpropan-2-yl)-2-(1-methylpyrrolidin-2-yl)acetamide]"
17,79.4 nM,"COc1c(Cl)cccc1C(C)(C)NC(=O)C[C@H]1CCCN1C [Example 113, (R)-N-(2-(3-chloro-2-methoxyphenyl)propan-2-yl)-2-(1-methylpyrrolidin-2-yl)acetamide]"
18,251 nM,"COc1c(F)cccc1C(C)(C)NC(=O)C[C@@H]1CCCN1C [Example 114, (S)-N-(2-(3-fluoro-2-methoxyphenyl)propan-2-yl)-2-(1-methylpyrrolidin-2-yl)acetamide]"
19,200 nM,"COc1c(F)cccc1C(C)(C)NC(=O)C[C@H]1CCCN1C [Example 115, (R)-N-(2-(3-fluoro-2-methoxyphenyl)propan-2-yl)-2-(1-methylpyrrolidin-2-yl)acetamide]"
20,79.4 nM,"COc1c(C)cccc1C(C)(C)NC(=O)C[C@@H]1CCCN1C [Example 116, (S)-N-(2-(2-methoxy-3-methylphenyl)propan-2-yl)-2-(1-methylpyrrolidin-2-yl)acetamide]"
21,158 nM,"COc1c(C)cccc1C(C)(C)NC(=O)C[C@H]1CCCN1C [Example 117, (R)-N-(2-(2-methoxy-3-methylphenyl)propan-2-yl)-2-(1-methylpyrrolidin-2-yl)acetamide]"
22,251 nM,"Cc1cccnc1OCC1(NC(=O)CC2CCCCN2C)CC1 (stereo not drawn) [Example 120, 2-(1-methylpiperidin-2-yl)-N-(1-(((3-methylpyridin-2-yl)oxy)methyl)cyclopropyl)acetamide]"
23,631 nM,"Cc1cccnc1OCC1(NC(=O)C[C@H]2CCCN2C)CC1 [Example 121, (R)-N-(1-(((3-methylpyridin-2-yl)oxy)methyl)cyclopropyl)-2-(1-methylpyrrolidin-2-yl)acetamide]"
24,316 nM,"CN1CCC[C@H]1CC(=O)NC(C)(C)COc1nccc2ccoc12 [Example 122, (S)-N-(1-(furo[2,3-c]pyridin-7-yloxy)-2-methylpropan-2-yl)-2-(1-methylpyrrolidin-2-yl)acetamide]"
25,158 nM,"CN1CCC[C@H]1CC(=O)NC(C)(C)COc1ccccn1 [Example 123, (S)-N-(2-methyl-1-(pyridin-2-yloxy)propan-2-yl)-2-(1-methylpyrrolidin-2-yl)acetamide]"
26,39.8 nM,"Cc1cnc(OCC(C)(C)NC(=O)C[C@@H]2CCCN2C)c(Cl)c1 [Example 124, (S)-N-(1-((3-chloro-5-methylpyridin-2-yl)oxy)-2-methylpropan-2-yl)-2-(1-methylpyrrolidin-2-yl)acetamide]"
27,126 nM,"CN1CCC[C@H]1CC(=O)NC(C)(C)COc1nccc2occc12 [Example 125, (S)-N-(1-(furo[3,2-c]pyridin-4-yloxy)-2-methylpropan-2-yl)-2-(1-methylpyrrolidin-2-yl)acetamide]"
28,398 nM,"Cc1ccc(C(NC(=O)C[C@@H]2CCCN2C)C(F)(F)F)cc1 (stereo partly drawn) [Example 158, 2-((S)-1-methylpyrrolidin-2-yl)-N-(2,2,2-trifluoro-1-(p-tolyl)ethyl)acetamide]"
29,398 nM,"CN1CCC[C@@H]1CC(=O)NC(C)(C)c1ccccc1F [Example 159, (R)-N-(2-(2-fluorophenyl)propan-2-yl)-2-(1-methylpyrrolidin-2-yl)acetamide]"

# Target: T1, SSTR4
# Assay: SSTR4 I-125 somatostatin competition binding assay (CHO-K1 membranes)
# Conditions: competition with I-125 somatostatin, membranes from CHO-K1 overexpressing SSTR4; read-out: SSTR4 Binding pIC50 (converted)
# Method: SSTR4 I-125 Somatostatin Competition Binding Assay
# Membranes from CHO-K1 cells overexpressing SSTR4 are purchased from Perkin Elmer (catalog number ES-524-M400UA). Test compounds are suspended in DMSO and then diluted in assay buffer (25 mM HEPES pH 7.4, 10 mM MgCl2, 1 mM CaCl2), 0.5% BSA) plus 0.2 nM I-125 labeled somatostatin (Perkin Elmer catalog number NEX389). Fifty μL of compound/I-125 somatostatin in assay buffer are added per well to 96-well poly-propylene plate. Then 1 μg of SSTR4 membranes in 50 μL assay buffer are added per well. The Plate is incubated for 60 minutes at room temperature. FilterMat A filters (Perkin Elmer catalog number 1450-421) are pre-soaked in 0.5% PEI (Sigma catalog number P3143). The contents of the assay plate are transferred to filters with a TomTech harvester and washed 5 times with 20 mM HEPES, 100 mM NaCl. The filters are dried in a microwave oven then transferred to sample bag containing a scintillator sheet (Perkin Elmer catalog number 1450-441). The scintillator sheets are melted to filters using a heat block. The filters are then read in a MicroBeta scintillation counter. Binding Ki curves are generated using Activity Base for Screening Data Management and the results are reported as pIC50.
row,IC50,Compound
1,316 nM,"CN1CCCC[C@H]1CC(=O)NC(C)(C)c1nccc2occc12 (single isomer, unassigned) [Example 15]"
2,1580 nM,"COc1c(C)cccc1C(C)(C)NC(=O)[C@@H](C)CN1CCC1 (single isomer, unassigned) [Example 147]"
3,126 nM,"CN1CCCCC1CC(=O)NC(C)(C)c1nccc2occc12 (stereo not drawn) [Example 13, N-(2-(furo[3,2-c]pyridin-4-yl)propan-2-yl)-2-(1-methylpiperidin-2-yl)acetamide]"
4,1580 nM,"CCN1CCCC1CC(=O)NC1(COc2ncccc2C)CC1 (stereo not drawn) [Example 63, 2-(1-ethylpyrrolidin-2-yl)-N-(1-(((3-methylpyridin-2-yl)oxy)methyl)cyclopropyl)acetamide]"
